Measured values reported in ChEMBL document CHEMBL1201862, “PubChem BioAssay data set” (2004).
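Compound exposure: 48 hours, 5 concentrations, 96-well plates. GI50: concentration for 50% inhibition of growth.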 Active and inactive are the calls of the source. Rule as the data show it: active = GI50 up to about 1.1 µM and inactive = higher.

Key:
Assay in all cases: NCI anticancer screen, dose series, 48 h
RPMI-8226 = test system: RPMI-8226
LOX IMVI = test system: LOX IMVI
NCI-H522 = test system: NCI-H522
NCI-H460 = test system: NCI-H460
HCT-116 = test system: HCT-116
Malme-3M = test system: Malme-3M
OVCAR-4 = test system: OVCAR-4
SK-OV-3 = test system: SK-OV-3
BT-549 = test system: BT-549
A498 = test system: A498
OVCAR-8 = test system: OVCAR-8
SF-268 = test system: SF-268
HCT-15 = test system: HCT-15
NCI-H226 = test system: NCI-H226
IGROV-1 = test system: IGROV-1
DU-145 = test system: DU-145
K562 = test system: K562
NCI-H23 = test system: NCI-H23
SK-MEL-5 = test system: SK-MEL-5
MOLT-4 = test system: MOLT-4

Structure (SMILES)	GI50 (RPMI-8226)	GI50 (LOX IMVI)	GI50 (NCI-H522)	GI50 (NCI-H460)	GI50 (HCT-116)	GI50 (Malme-3M)	GI50 (OVCAR-4)	GI50 (SK-OV-3)	GI50 (BT-549)	GI50 (A498)	GI50 (OVCAR-8)	GI50 (SF-268)	GI50 (HCT-15) [µM]	GI50 (NCI-H226)	GI50 (IGROV-1)	GI50 (DU-145)	GI50 (K562)	GI50 (NCI-H23)	GI50 (SK-MEL-5)	GI50 (MOLT-4)
CC1(C)CC(=O)c2c(nc(SSc3nc4c(c(-c5ccc(Br)cc5)c3C#N)C(=O)CC(C)(C)C4)c(C#N)c2-c2ccc(Br)cc2)C1	> 10 µM (inactive)	> 10 µM (inactive)	> 10 µM (inactive)	> 10 µM (inactive)	> 10 µM (inactive)	> 10 µM (inactive)	> 10 µM (inactive)	> 10 µM (inactive)	> 10 µM (inactive)	> 10 µM (inactive)	> 10 µM (inactive)	> 10 µM (inactive)	> 10	> 10 µM (inactive)	> 10 µM (inactive)	> 10 µM (inactive)	> 10 µM (inactive)	> 10 µM (inactive)	> 10 µM (inactive)	> 10 µM (inactive)
CCC(=O)C(CCN1CCC2(CCCc3ccccc32)CC1)(c1ccccc1)c1ccccc1	0.622 µM (active)	0.851 µM (active)	1.75 µM (inactive)	2.52 µM (inactive)	1.42 µM (inactive)	1.91 µM (inactive)	3.52 µM (inactive)	3.19 µM (inactive)	0.685 µM (active)	1.98 µM (inactive)	3.66 µM (inactive)	5.92 µM (inactive)	2.55	2.05 µM (inactive)	2.77 µM (inactive)	3.1 µM (inactive)	1.8 µM (inactive)	2.15 µM (inactive)	1.49 µM (inactive)	1.41 µM (inactive)
C(=C\c1ccccc1)/C=N/c1nc2cc3sc(/N=C/C=C/c4ccccc4)nc3cc2s1	> 87.7 µM (inactive)	29.9 µM (inactive)	18.2 µM (inactive)	4.16 µM (inactive)	28.5 µM (inactive)	> 100 µM (inactive)	> 100 µM (inactive)	> 100 µM (inactive)	> 96.2 µM (inactive)	> 42.5 µM (inactive)	> 92.3 µM (inactive)	> 63.4 µM (inactive)	33.7	0.813 µM (active)	> 63.2 µM (inactive)	> 100 µM (inactive)	43.3 µM (inactive)	42.2 µM (inactive)	> 28.9 µM (inactive)	7.35 µM (inactive)
C=C(C)C(=O)O[C@@H]1C[C@@]2(C)O[C@@H]2C[C@H](O)/C(C)=C/[C@H]2OC(=O)C(=C)[C@@H]21	40.1 µM (inactive)	29.9 µM (inactive)	12.6 µM (inactive)	> 100 µM (inactive)	33.7 µM (inactive)	24.5 µM (inactive)	19.9 µM (inactive)	> 100 µM (inactive)	63.1 µM (inactive)	> 100 µM (inactive)	40.6 µM (inactive)	> 100 µM (inactive)	30.9	> 100 µM (inactive)	> 100 µM (inactive)	> 100 µM (inactive)	29 µM (inactive)	> 100 µM (inactive)	> 100 µM (inactive)	28.8 µM (inactive)
COc1cc2c(c(OC)c1)C(=O)O[C@H](C)CCCC/C=C/C2	9.12 µM (inactive)	4.73 µM (inactive)	8.09 µM (inactive)	11.1 µM (inactive)	8.61 µM (inactive)	13.1 µM (inactive)	12.1 µM (inactive)	45.9 µM (inactive)	13.4 µM (inactive)	39.7 µM (inactive)	33.3 µM (inactive)	8.17 µM (inactive)	10.2	45.6 µM (inactive)	9.06 µM (inactive)	11.7 µM (inactive)	6.24 µM (inactive)	11.2 µM (inactive)	5.71 µM (inactive)	7.31 µM (inactive)
C(/Cc1ccc2c(c1)OCO2)=N\N=C1NCCCN1	56.1 µM (inactive)	29.4 µM (inactive)	55.3 µM (inactive)	19 µM (inactive)	46.2 µM (inactive)	64.4 µM (inactive)	98.9 µM (inactive)	42.1 µM (inactive)	64.7 µM (inactive)	19.5 µM (inactive)	> 100 µM (inactive)	93.8 µM (inactive)	> 100	> 100 µM (inactive)	68.2 µM (inactive)	67.5 µM (inactive)	35.1 µM (inactive)	> 100 µM (inactive)	25 µM (inactive)	24.7 µM (inactive)
COc1cc(C2S/C(=C/c3ccccc3)C(=O)N2c2ccc([N+](=O)[O-])cc2)cc(OC)c1OC (stereo not given)	> 57.7 µM (inactive)	19 µM (inactive)	> 63.5 µM (inactive)	48 µM (inactive)	> 64.9 µM (inactive)	> 100 µM (inactive)	45.9 µM (inactive)	> 100 µM (inactive)	44.9 µM (inactive)	73.1 µM (inactive)	> 100 µM (inactive)	> 83.9 µM (inactive)	26.4	58.9 µM (inactive)	> 20.6 µM (inactive)	> 41.2 µM (inactive)	3.68 µM (inactive)	> 100 µM (inactive)	25.6 µM (inactive)	47.3 µM (inactive)
